Experimental data: patent US7468391B2, “Methods for treating retinoid responsive disorders using selective inhibitors of CYP26A and CYP26B” (Allergan, Inc., priority 2003, dated 2008)
pIC50, pKd: −log10 of the molar value.

Assays:
CYP26A (P450RAI-1) = biological target: T1, CYP26A (P450RAI-1) (Homo sapiens, UniProt O43174); assay: Cell-based inhibition of RA metabolism in CYP26A stably transfected HeLa cells; details: stably transfected HeLa cells, [3H]-RA, 3 hours at 37° C.; read-out: P450RAI-1 Whole cell IC50
T1 construct: expressed in transfected cells; host or cells: HeLa
T1 sequence (O43174 1-497): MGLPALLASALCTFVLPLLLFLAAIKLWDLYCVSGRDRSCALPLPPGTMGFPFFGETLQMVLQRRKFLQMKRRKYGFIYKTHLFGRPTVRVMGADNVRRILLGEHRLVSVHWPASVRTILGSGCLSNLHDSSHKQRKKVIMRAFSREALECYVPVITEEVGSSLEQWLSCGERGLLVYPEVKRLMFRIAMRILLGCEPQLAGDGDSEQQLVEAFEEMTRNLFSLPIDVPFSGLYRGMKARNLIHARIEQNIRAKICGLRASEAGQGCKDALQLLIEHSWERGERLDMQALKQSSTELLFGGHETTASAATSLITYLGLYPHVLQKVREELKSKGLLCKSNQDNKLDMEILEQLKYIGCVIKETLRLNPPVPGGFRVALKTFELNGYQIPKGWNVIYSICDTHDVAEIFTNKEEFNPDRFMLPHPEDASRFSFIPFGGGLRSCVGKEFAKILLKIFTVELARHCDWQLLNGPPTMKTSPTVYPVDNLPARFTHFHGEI
Description: (§1) In brief, CYP26A or CYP26B can be stably transfected into HeLa cells. Exponentially growing cells are harvested by incubating in trypsin. Cells are then washed and plated in a 48-well plate at 5×10^5 cells in 0.2 ml MEM medium containing 10% FBS and 0.05 μCi [^3H]-RA in the presence or absence of increasing concentrations of the test compounds. The compounds are diluted in 100% DMSO and then added in triplicate wells at either 10, 1 or 0.1 μM final concentration. As a positive control for RA metabolism inhibition, cells are also incubated with ketoconazole at 100, 10 and 1 μM. Cells are incubated for 3 hours at 37 degrees C. The retinoids are then extracted using the procedure of Bligh et al., Canadian Journal of Biochemistry 37: 911-917 (1959), modified by using methylenechloride instead of chloroform. This publication by Bligh et al., is specifically incorporated herein by reference. The water soluble radioactivity is quantified using a β scintillation counter, and IC50 values are determined.
(§2) CYP26A and CYP26B stably transfected HeLa cells were maintained in 100 mm tissue culture dishes in MEM medium containing 10% FBS and 100 μg/ml hygromycin.
(§3) Exponentially growing cells were harvested by incubating in trypsin. Cells were then washed with 1×PBS and plated in a 48-well plate at 5×10^5 cells in 0.2 ml MEM medium containing 10% FBS and 0.05 μCi [^3H]-RA in the presence or absence of increasing concentrations of the test compounds. The compounds were diluted in 100% DMSO and then added to triplicate wells at final concentrations of 10, 1 or 0.1 μM. As a positive control for RA metabolism inhibition, cells were also incubated with ketoconazole at 100, 10 and 1 μM. Cells were incubated for 3 hours at 37° C. The retinoids were then extracted using a modified Bligh and Dyer procedure (Bligh and Dyer, supra (1959)), in which methylene-chloride, as opposed to chloroform, was used, and the aqueous soluble radioactivity quantified using a β-scintillation counter. ID50 values represent the concentration of inhibitor required to inhibit RA metabolism by 50 percent and were derived manually from log-transformed data.

RAR β = biological target: T2, RAR β (Homo sapiens, UniProt P10826); assay: RAR β Kd; format: binding; details: last item of cell EC50/(EFFICACY)/Kd
T2 sequence (P10826 1-455): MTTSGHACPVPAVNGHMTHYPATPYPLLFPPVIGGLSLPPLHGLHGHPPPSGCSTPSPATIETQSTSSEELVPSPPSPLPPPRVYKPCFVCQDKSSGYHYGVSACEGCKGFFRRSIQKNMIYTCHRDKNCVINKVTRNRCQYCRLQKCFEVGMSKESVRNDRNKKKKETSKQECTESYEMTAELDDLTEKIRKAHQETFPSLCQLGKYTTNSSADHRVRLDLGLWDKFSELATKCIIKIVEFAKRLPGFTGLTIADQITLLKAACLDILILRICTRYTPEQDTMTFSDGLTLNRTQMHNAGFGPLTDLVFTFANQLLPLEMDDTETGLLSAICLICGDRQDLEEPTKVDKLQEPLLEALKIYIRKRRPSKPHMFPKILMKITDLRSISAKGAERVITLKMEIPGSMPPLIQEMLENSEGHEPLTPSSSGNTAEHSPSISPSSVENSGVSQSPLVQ

RAR α = biological target: T3, RAR α (Homo sapiens, UniProt P10276); assay: RAR α Kd; format: binding; details: last item of cell EC50/(EFFICACY)/Kd
T3 sequence (P10276 1-462): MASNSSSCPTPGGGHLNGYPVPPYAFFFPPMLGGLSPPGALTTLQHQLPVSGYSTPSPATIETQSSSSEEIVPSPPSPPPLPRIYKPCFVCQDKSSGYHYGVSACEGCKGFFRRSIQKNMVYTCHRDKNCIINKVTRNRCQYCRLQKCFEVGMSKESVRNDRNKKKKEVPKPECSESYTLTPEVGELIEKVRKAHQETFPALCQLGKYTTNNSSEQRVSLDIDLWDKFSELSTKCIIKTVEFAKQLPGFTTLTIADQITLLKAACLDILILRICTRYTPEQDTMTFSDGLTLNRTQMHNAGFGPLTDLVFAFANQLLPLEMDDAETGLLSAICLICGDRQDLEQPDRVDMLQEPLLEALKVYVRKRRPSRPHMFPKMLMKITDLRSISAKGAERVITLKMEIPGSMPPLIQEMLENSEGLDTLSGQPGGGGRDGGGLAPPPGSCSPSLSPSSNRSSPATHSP

RAR γ = biological target: T4, RAR γ (Homo sapiens, UniProt P13631); assay: RAR γ Kd; format: binding; details: last item of cell EC50/(EFFICACY)/Kd
T4 sequence (P13631 1-454): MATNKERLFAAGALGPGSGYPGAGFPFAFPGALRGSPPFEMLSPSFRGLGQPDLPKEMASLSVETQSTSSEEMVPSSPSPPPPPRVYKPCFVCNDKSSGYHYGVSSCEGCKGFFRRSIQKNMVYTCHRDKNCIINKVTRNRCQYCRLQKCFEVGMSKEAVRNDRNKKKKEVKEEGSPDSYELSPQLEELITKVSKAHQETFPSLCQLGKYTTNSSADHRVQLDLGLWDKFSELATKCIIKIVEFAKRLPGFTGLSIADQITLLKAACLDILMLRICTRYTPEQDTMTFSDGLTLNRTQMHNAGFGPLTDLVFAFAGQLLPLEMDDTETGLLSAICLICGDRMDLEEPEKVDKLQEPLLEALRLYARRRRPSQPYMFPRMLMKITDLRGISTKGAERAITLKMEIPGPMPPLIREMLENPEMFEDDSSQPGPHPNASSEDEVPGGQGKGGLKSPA

CYP26B (P450RAI-2) = biological target: T5, CYP26B (P450RAI-2) (Homo sapiens, UniProt Q9NR63); assay: Cell-based inhibition of RA metabolism in CYP26B stably transfected HeLa cells; details: stably transfected HeLa cells, [3H]-RA, 3 hours at 37° C.; read-out: P450RAI-2 Whole cell IC50
T5 construct: expressed in transfected cells; host or cells: HeLa
T5 sequence (Q9NR63 1-512): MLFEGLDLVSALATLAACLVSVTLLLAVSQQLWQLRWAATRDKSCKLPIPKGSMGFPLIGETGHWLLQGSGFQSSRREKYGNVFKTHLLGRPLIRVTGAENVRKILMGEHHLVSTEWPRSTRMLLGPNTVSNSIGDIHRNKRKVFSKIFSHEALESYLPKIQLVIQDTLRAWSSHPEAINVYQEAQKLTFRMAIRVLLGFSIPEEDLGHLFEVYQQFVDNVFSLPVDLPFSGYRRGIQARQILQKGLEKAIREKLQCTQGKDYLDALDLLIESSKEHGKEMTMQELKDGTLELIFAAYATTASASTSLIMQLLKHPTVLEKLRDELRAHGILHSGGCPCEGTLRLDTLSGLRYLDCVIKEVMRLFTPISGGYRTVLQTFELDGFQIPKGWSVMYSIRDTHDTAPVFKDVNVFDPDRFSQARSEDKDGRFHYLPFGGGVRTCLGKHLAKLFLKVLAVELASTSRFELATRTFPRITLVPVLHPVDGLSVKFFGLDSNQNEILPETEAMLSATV
Description: as §1, §2, §3

SMILES | pIC50 (CYP26A (P450RAI-1)) | pKd (RAR β) | pKd (RAR α) | pKd (RAR γ) | pIC50 (CYP26B (P450RAI-2))
CC(C(=O)O)c1ccc(C#Cc2cc(C3CC3)c3c(c2)C(C)(C)CCC3N(C)C2CC2)cc1 (centres unmarked) [Compound 49, 2-{4-[4-Cyclopropyl-5-(cyclopropyl-methyl-amino)-8,8-dimethyl-5,6,7,8-tetrahydro-naphthalen-2-ylethynyl]-phenyl}-propionic acid] | 7.30 | < 5.00 | 5.28 | < 5.00 | –
CN(Cc1cc(C#Cc2ccc(CC(=O)O)cc2)cc2c1OC(C)(C)CC2(C)C)C1CC1 [Compound 6, (4-{8-[(Cyclopropyl-methyl-amino)-methyl]-2,2,4,4-tetramethyl-chroman-6-ylethynyl}phenyl)-acetic acid] | 7.22 | < 5.00 | 5.47 | < 5.00 | 5.40
COc1cc(C#Cc2ccc(CC(=O)O)cc2)cc2c1C(N(C)C1CC1)CCC2(C)C (centres unmarked) [Compound 25, {4-[5-(Cyclopropyl-methyl-amino)-4-methoxy-8,8-dimethyl-5,6,7,8-tetrahydro-naphthalen-2-ylethynyl]-phenyl}-acetic acid] | 7.00 | < 5.00 | < 5.00 | 6.50 | < 5.00
COc1cc(C#Cc2ccc(/C=C/C(=O)O)cc2)cc2c1C(N(C)C1CC1)CCC2(C)C (centres unmarked) [Compound 29, (E)-3-{4-[5-(Cyclopropyl-methyl-amino)-4-methoxy-8,8-dimethyl-5,6,7,8-tetrahydro-naphthalen-2-ylethynyl]-phenyl}-acrylic acid] | 6.22 | < 5.00 | < 5.00 | < 5.00 | < 5.00
CN(Cc1cc(C#Cc2ccc(C(C)(C)C(=O)O)cc2)cc2c1OC(C)(C)CC2(C)C)C1CC1 [Compound 9, 2-(4-{8-[(Cyclopropyl-methyl-amino)-methyl]-2,2,4,4-tetramethyl-chroman-6-ylethynyl}-phenyl)-2-methyl-propionic acid] | 6.92 | < 5.00 | < 5.00 | < 5.00 | < 5.00
CC(C)c1cc(C#Cc2cccc(/C=C/C(=O)O)c2)cc2c1OC(C)(C)CC2(C)C [Compound 15, 3-[3-(8-Isopropyl-2,2,4,4-tetramethyl-chroman-6-ylethynyl)-phenyl]-acrylic acid] | 6.22 | < 5.00 | 5.05 | < 5.00 | < 5.00
CC(C(=O)O)c1ccc(C#Cc2cc(O)c3c(c2)C(C)(C)CC(C)(C)O3)cc1 (centres unmarked) [Compound 11, 2-[4-(8-Hydroxy-2,2,4,4-tetramethyl-chroman-6-ylethynyl)-phenyl]-propionic acid] | 7.15 | < 5.00 | < 5.00 | < 5.00 | 5.52
CC(C)OC(=O)c1cccc(C#Cc2ccc(CC(=O)O)c(F)c2)c1 [Compound 44, 3-(4-Carboxymethyl-3-fluoro-phenylethynyl)-benzoic acid isopropyl ester] | 6.15 | 5.09 | < 5.00 | < 5.00 | 5.12
CC(C)N(Cc1cc(C(=O)Oc2ccc(CC(=O)O)cc2)cc2c1OC(C)(C)CC2(C)C)C1CC1 [Compound 17, 8-[(Cyclopropyl-isopropyl-amino)-methyl]-2,2,4,4-tetramethyl-chroman-6-carboxylic acid 4-carboxymethyl-phenyl ester] | 5.60 | – | – | – | < 5.00
CC(C)(C)OC(=O)c1cc(C#Cc2ccc(CC(=O)O)cc2)cc2c1OC(C)(C)CC2(C)C [Compound 20, 6-(4-Carboxymethyl-phenylethynyl)-2,2,4,4-tetramethyl-chroman-8-carboxylic acid tert-butyl ester] | 5.54 | – | – | – | < 5.00
CC(C)(C)COC(=O)c1cc(C#Cc2ccc(CC(=O)O)cc2)cc2c1OC(C)(C)CC2(C)C [Compound 19, 6-(4-Carboxymethyl-phenylethynyl)-2,2,4,4-tetramethyl-chroman-8-carboxylic acid 2,2-dimethylpropyl ester] | 5.15 | – | – | – | < 5.00
CC(C)OC(=O)c1cc(C#Cc2ccc(CC(=O)O)cc2)cc2c1OC(C)(C)CC2(C)C [Compound 18, 6-(4-Carboxymethyl-phenylethynyl)-2,2,4,4-tetramethyl-chroman-8-carboxylic acid isopropyl ester] | 6.40 | – | – | – | < 5.00
